Data as given in US20230102836A1, “Amoebicidal Compositions for Contact Lens Solutions” (University of the West of Scotland, priority 2019, published 2023).
“And” between values parts separate entries of the source, which are not always exact repeats. Equal values may be shown once.

What was measured:
[1] = system: A. castellanii trophozoites; assay: Cytotoxicity assay on trophozoites (resazurin / alamarBlue); format: cell-based, Acanthamoeba castellanii ATCC 50370; settings: Acanthamoeba castellanii; Table 2; read-out: IC50 A. castellanii trophozoites
Procedure: Acanthamoeba castellanii ATCC 50370 trophozoites and cysts were cultured in Peptone Glucose (PG) medium and encystment medium (Chagla A H, Griffiths A J (1974) Microbiology: 85(1): 139-145) respectively at 25° C. Cysts were prepared by incubating trophozoites for 8 days in encystment medium and integrity validated with calcofluor (0.25 μg/ml) assay (Gatti S et al (2010) J. Med. Microbiol.; 59: 1324-1330) or sodium dodecyl sulfate (SDS, 0.5% w/v) disintegration assay (Dudley R et al (2005) Acta Trop.; 9: 100-8) and microscopic observation.
The compounds used in this study all contained alkyl-carbon chains: three APCs [dodecyl-PC (APC12), tetradecyl-PC. (APC14) and hexadecyl-PC (APC16)] (Anatrace) and four QACs [docdecyl-TMAB (QAC12), tetradecyl-TMAB (QAC14), hexadecyl-TMAB (QAC16) and octadecyl-TMAB (QAC18)](Sigma). All were prepared to a stock concentration of 1 mg/ml and diluted as required by the experimental protocol in the cytotoxicity assays. […]
[…] Resazurin (7-Hydroxy-31-phenoxazin-3-one 10-oxide; 5 mg/ml; McBride J et al (2005) J. Clin. Microbiol.; 43: 629-634) and trypan blue (0.4 μg/ml; Mafra C S P et al (2013) Investig. Ophthalmol. Vis. Si.; 54: 6363-6372) were then added to trophozoites and cysts respectively after being exposed to the compounds and the cell viability estimated microscopically and from changes in absorbance (at 595 nm and 570 nm) respectively.
Efficacy was expressed as a percentage of untreated controls for each drug concentration used and the data used to calculate the IC50. Cell density was estimated using the modified Neubaur hemocytometer and expressed as cells/ml.

A. castellanii cysts [2] = assay: Drug wash-out / alamarBlue-reversion assay, cysts; format: cell-based, Acanthamoeba castellanii ATCC 50370; settings: for Back transformation to trophozoites after drug wash-out: Cysts; on Back transformation to trophozoites after drug wash-out: key: +: indicates cells reverting back to trophozoites after washout; and capable of oxidizing reduced alamarBlue from blue to pink after 8 days; −: indicates cell that did not revert to trophozoites after wash-out and unable to oxidise reduced alamarBlue solution
Procedure: For the drug kinetic assay, viability was assessed by the linked alamarBlue-reversion assay. Drug-treated cysts were washed with PBS and fresh PG medium was added to allow reversion to trophozoites for 5 days, after which, alamar blue was added and viability estimated as described above.
The cysticidal activity of QAC16 to QAC18 strongly correlated with (a) the alkyl-carbon chain lengths (Table 2) and the duration of drug contact (FIG. 8H). Like trophozoites, death was via leakage judged by 40% and 50% increase in DNA and proteins in the external milieu after 1 h (FIGS. 9A and 9B). To investigate if the cyst were viable, a complementary viability assay that involved, drug washout, incubation in PG medium to allow reversion of viable cyst to trophozoite for 7 days, and estimation of viability using the oxidation of resazurin after 6 h.

[3] = system: Acanthamoeba trophozoites; assay: Checkerboard dilution QAC-APC interaction (Bliss model); format: cell-based, Acanthamoeba castellanii; settings: APC12, APC14, APC16; 96 h at 25° C.
Procedure: Acanthamoeba trophozoites (10^5 cells/ml. n=5/treatment) treated with 100 μg/ml doubly diluted to 0.06 μg/ml of QAC12 (FIG. 7A), […], QAC16 (FIG. 7C) and QAC18 (FIG. 7D) with APC 12 (i), APCI 4 (ii) and APC16 (iii) for 96 h at 25° C. Cell viability estimated by the alamarBlue assay the dose-response curves used to produce a surface analysis (right panel) and the interaction profile determined using the Bliss model. The degree of interaction characterised by the QCScore heuristic score are produced as heat map (left panel). The colour of each cell in the heatmap and the surface analysis represents the assay response at that dose combination; red to orange, antagonistic: yellow to green, additive and blue, synergistic.
The change in potency between QAC and APC prompted us to used the checkerboard dilution method to identify synergistic interactions (FIG. 7A-D). Three interaction profiles, antagonistic (orange to red), additive (yellow to green) and synergistic (blue) were observed, with optimal synergistic interactions deemed to be significant occurring between 20-38%; (FIG. 7).

A. castellanii cysts [4] = assay: Extrusion of cytoplasmic constituents (DNA, protein) from cysts; format: cell-based, Acanthamoeba castellanii ATCC 50370
Source text: FIGS. 9A-9B show the extrusion of cytoplasmic constituents of A. castellani cysts to the external milieu after QAC treatment. DNA (FIG. 9A) and Protein (FIG. […] 9A) and at 280 nm (FIG. 9B) respectively. Data is mean absorbance at 260 nm (FIG. 9A) and 280 nm (FIG. 9B)±SD respectively: n=4 independent experiments performed in triplicates.
Protein concentration in cell extract and media of QAC-treated and untreated A. castellanii trophozoites was estimated at 280 nm using the Nanodrop® ND-1000 and expressed as ng/μl protein. DNA concentrations were estimated similarly at 260 nm and expressed as ng/μl.

[5] = system: A. castellanii trophozoites; assay: Morphometric analysis of trophozoites; format: cell-based, Acanthamoeba castellanii ATCC 50370
Procedure: Acanthamoeba trophozoites ([…]) incubated without (FIG. 2A), with QAC18 at 37.5 μg/ml for 1 h at 25° C. (FIG. 2B), and 0.5% SDS for 30 min (FIG. 2C). QAC18 reduced trophozoites sizes from 29.02±0.23 (FIG. 2A) to 7.87 f 0.93 (FIG. 2B) which disintegrated after 30 min treatment with SDS (FIG. 2C).
A. castellanii trophozoites incubated with and without QAC for a duration determined by experimental protocol were examined microscopically and their sizes measured using the Open Laboratory (Improvision) calibration graticule. The mean body sizes were determined.

For `CCCCCCCCCCCCCCCCCC[N+](C)(C)C.[Br-]` [QAC18, octadecyltrimethyl ammonium bromide], the IC50 [1] was 1.06 µg/mL and 3 µM, the “Resurgence of cysts after drug washout” value (A. castellanii cysts [2]; 18.75 μg/ml after 48 h) was “No resurgence” and the “Resurgence of cysts after drug washout” value (A. castellanii cysts [2]; 37.5 μg/ml after 24 h) was “No resurgence”. The “Back transformation to trophozoites after drug wash-out” value (shortened to “Back transformation to trophozoites”) (A. castellanii cysts [2]; 9.375 μg/ml, 24 h) was “+”, the “Back transformation to trophozoites” value (A. castellanii cysts [2]; 9.375 μg/ml, 48 h) was “+” and the “Back transformation to trophozoites” value (A. castellanii cysts [2]; 9.375 μg/ml, 72 h) was “+”. The “Back transformation to trophozoites” value (A. castellanii cysts [2]; 18.75 μg/ml, 24 h) was “+”, the “Back transformation to trophozoites” value (A. castellanii cysts [2]; 18.75 μg/ml, 48 h) was “+” and the “Back transformation to trophozoites” value (A. castellanii cysts [2]; 18.75 μg/ml, 72 h) was “+”. For the same molecule, the “Back transformation to trophozoites” value (A. castellanii cysts [2]; 37.50 μg/ml, 24 h) was “−”, the “Back transformation to trophozoites” value (A. castellanii cysts [2]; 37.50 μg/ml, 48 h) was “−” and the “Back transformation to trophozoites” value (A. castellanii cysts [2]; 37.50 μg/ml, 72 h) was “−”. The “Interaction profile of QAC combined with APCs” value [3] was “No significant synergy”, the “Increase in DNA in the external milieu of cysts” value (A. castellanii cysts [4]; after 1 h (FIG. 9A)) was 40% and the “Increase in proteins in the external milieu of cysts” value (A. castellanii cysts [4]; after 1 h (FIG. 9B)) was 50%. The “Reduction in trophozoite size relative to untreated” value [5] was 4 fold, the “Trophozoite size after treatment” value ([5]; 37.5 μg/ml for 1 h at 25° C. (FIG. 2B)) was 7.87 and the “Trophozoite size after treatment” value ([5]; QAC18-treated trophozoites (FIG. 2B)) was 7.87±0.93 μm.
